# Test results from publication PMC5004101, “Broad Spectrum Anti-Influenza Agents by Inhibiting Self-Association of Matrix Protein 1” (Scientific Reports, 2016).
# B1: matrix protein 1 (M1) N-terminal domain, residues 1-165, of influenza A virus H1N1 A/WSN/33 (domain or fragment)
# chain: MSLLTEVETYVLSIVPSGPLKAEIAQRLEDVFAGKNTDLEVLMEWLKTRPILSPLTKGILGFVFTLTVPSERGLQRRRFVQNALNGNGDPNNMDKAVKLYRKLKREITFHGAKEIALSYSAGALASCMGLIYNRMGAVTTEVAFGLVCATCEQIADSQHRSHRQM
# notes: also called N1-165-domain of WSN/33; biotinylated M1
# Columns and labels:
# [1] = biological target: T1, M1 (matrix protein 1), recombinant N1-165 domain of WSN/33 (Influenza A virus (A/Wilson-Smith/1933(H1N1)), UniProt P05777); assay: bio-layer interferometry, inhibition of M1-M1 self-association; format: binding
# T1 construct: gene M
# [2] = biological target: T1, M1 (matrix protein 1), recombinant N1-165 domain of WSN/33 (Influenza A virus (A/Wilson-Smith/1933(H1N1)), UniProt P05777); assay: surface plasmon resonance, biotinylated M1 on NeutrAvidin chip; format: binding
# [3] = biological target: the molecule itself; assay: SPR; […], room temperature, pH 7.4; […]
molecule,measurement,setting,value
CCCc1c(OCCCOc2ccc(OCC(=O)O)cc2)ccc(C(C)=O)c1O [PHE],IC50,[1],~6000 nM
same,Kd,[2],870 ± 150 nM
B1,Kd,[3],0.05 ± 0.03 nM
